Assays:
[1] = system: β-catenin expression in PCSCs; assay: β-catenin expression in human PC stem cells (PCSCs); format: cell-based; details: less inhibition with DT 3 without Wnt3a pretreatment
[2] = system: IPMN neoplastic cells; assay: IHC of cleaved caspase-3 and BAX in tumor specimens of patients treated with DT3; format: in vivo, human
Description: Lower panel is IHC stained for the pro-apoptotic protein Bax, illustrating the association of DT 3 induction of apoptosis with increased expression of Bax
(§1) DT3 has been widely used as a dietary supplement for its presumptive benefit in promoting health by decreasing serum cholesterol levels. […] In an NCI-sponsored phase 1 study (NCT00985777), we enrolled 9 out of 25 patients with IPMNs who were treated with DT3 for 2 weeks. […] In our IHC analyses of tumor specimens, we observed a significant induction of cleaved caspase-3 and BAX in the IPMN neoplastic cells of 7 of 9 patients (77%) treated at doses of 100 mg orally twice daily or higher (FIG. 1). We identified 400 mg BID as a Biological Effective Dose (BED) for DT3 in our phase I trial^33. Therefore, we propose to confirm DT3 activity on IPMNs at 400 mg twice daily in a phase II trial, since this was the most bioactive dose observed in our phase I trial.

[3] = system: β-catenin expression in HPNE-Kras cells; assay: β-catenin expression in HPNE-Kras cells; format: cell-based
[4] = system: LGKC2 cells; assay: Apoptosis by flow cytometry (annexin V / propidium iodide), LGKC2; format: cell-based, murine; details: LGKC2, IC50 dose, 48 h
Description: (§2) LGKC1 (9A, 9C, 9E) and LGKC2 (9B, 9D, 9E) cells were treated with IC50 dose of DT 3 for 48 h. Apoptosis was measured by flow cytometry following annexin V and propidium iodide staining (9A, 9B). For cell cycle analysis by flow cytometry (9C, 9D) cells were synchronized with double thymidine block prior to treatment with DT 3. Following the treatment, cell lysates were prepared and impact on downstream signaling was performed by immunoblotting using the indicated antibodies (9E) and subjected to RNA sequencing (9F).
(§3) To determine if the reduced cell proliferation of IPMN cells by DT3 were due to its impact on cell cycle or cell death, we assayed apoptosis and cell cycle analysis by flow cytometry. […] RNA seq analysis of the treated cells further indicated significant upregulation of biological processes associated with programmed cell death, cell proliferation, immune response, and collagen fibril organization (FIG. 9F).

[5] = system: LGKC1 cells; assay: Cell proliferation by MTT assay, LGKC1; format: cell-based, murine; details: LGKC1, 48 h
Description: (§4) LGKC1 (left) and LGKC2 cells were treated with varying doses of DT3 for 24, 48, and 72 h and cell proliferation were measured by MTT assay.
(§5) We further studied the effect of DT3 on the proliferation of recently described murine IPMN cell lines LGKC1 & LGKC2 derived from constitutively active Kras and Gnas murine model of pancreatic cystic lesions [p48-Cre; KrasG12D; Rosa26R-rtTA-TetO-GnasR201C]. […] These IC50 doses were used for downstream functional studies in LGKC1 and LGKC2 cell lines.

[6] = system: HPNE cells; assay: Apoptosis (C-PARP) in HPNE cells; format: cell-based
[7] = system: LGKC1 cells; assay: Cell cycle analysis by flow cytometry, LGKC1; format: cell-based, murine; details: LGKC-1, IC50 dose, 48 h, double thymidine block
Description: as §2, §3

[8] = human, in vivo
Description: as §1

[9] = system: β-catenin expression in 3T3 cells; assay: β-catenin expression in 3T3 cells; format: cell-based
[10] = system: LGKC2 cells; assay: Immunoblotting of downstream signaling, LGKC2; format: cell-based, murine; details: LGKC2, IC50 dose
Description: as §2, §3

[11] = system: LGKC2 cells; assay: Cell cycle analysis by flow cytometry, LGKC2; format: cell-based, murine; details: LGKC-2, IC50 dose, 48 h, double thymidine block
Description: as §2, §3

[12] = system: LGKC2 cells; assay: Cell proliferation by MTT assay, LGKC2; format: cell-based, murine; details: LGKC2, 48 h
Description: as §4, §5

[13] = system: HPNE-Kras cells; assay: Apoptosis (C-PARP) and signaling protein expression in HPNE-Kras cells; format: cell-based
[14] = system: Wnt receptor activity in 3T3 cells; assay: Wnt receptor activity (luciferase units) in 3T3 cells; format: cell-based; details: after Wnt3a
[15] = system: LGKC1 cells; assay: Immunoblotting of downstream signaling, LGKC1; format: cell-based, murine; details: LGKC1, IC50 dose
Description: as §2, §3

[16] = system: LGKC1 cells; assay: Apoptosis by flow cytometry (annexin V / propidium iodide), LGKC1; format: cell-based, murine; details: LGKC1, IC50 dose, 48 h
Description: as §2, §3

[17] = 100 mg orally twice daily or higher, 2 weeks

CC(C)=CCC/C(C)=C/CC/C(C)=C/CC[C@]1(C)CCc2cc(O)cc(C)c2O1 [DT3, δ-tocotrienol]
β-catenin expression [1]: abolished | patients with significant induction of cleaved caspase-3 and BAX in IPMN neoplastic cells [2, 17]: 7 of 9 | percent of patients with significant induction of cleaved caspase-3 and BAX in IPMN neoplastic cells [2, 17]: 77% | apoptosis as measured by cleaved caspase-3 expression (IHC) ([2]; patients with IPMN): significantly induced apoptosis | β-catenin expression [3]: abolished | apoptosis [4]: induced apoptosis | IC50 [5]: 25.3 µM | apoptosis (C-PARP) [6]: not in HPNE cells | cell cycle progression [7]: G2/M arrest and accumulation of cells in S-phase | half-life [8]: approximately 4 hours | toxicity (dose-limiting toxicities, drug-related adverse events, postoperative complications) [8]: no evidence of toxicity | Wnt agonist-induced β-catenin expression [9]: inhibited | expression of b-catenin [10]: no effect | p-AKT, p-ERK1/2, cyclin D1 [10]: significant reduction | pGSK3β and cleaved PARP [10]: upregulation | cell cycle progression [11]: no effect on cell cycle progression | IC50 [12]: 29.4 µM | apoptosis (C-PARP) [13]: selectively induced apoptosis | expression of MUC4, MUC16, β-catenin and downstream proteins (C-myc, cyclin D1, survivin) [13]: decreased the expression | pAKT and pERK [13]: inhibited | agonist (Wnt3a)-induced Wnt receptor activity (luciferase units) [14]: significantly inhibited | expression of b-catenin [15]: no effect | p-AKT, p-ERK1/2, cyclin D1 [15]: significant reduction | pGSK3β and cleaved PARP [15]: upregulation | apoptosis [16]: induced apoptosis

B1: DKK1: Wnt antagonist (protein, UniProt O94907 32-266, looked up)
Dickkopf-related protein 1: TLNSVLNSNAIKNLPPPLGGAAGHPGSAVSAAPGILYPGGNKYQTIDNYQPYPCAEDEECGTDEYCASPTRGGDAGVQICLACRKRRKRCMRHAMCCPGNYCKNGICVSSDQNHFRGEIEETITESFGNDHSTLDGYSRRTTLSSKMYHTKGQEGSVCLRSSDCASGLCCARHFWSKICKPVLKEGQVCTKHRRKGSHGLEIFQRCYCGEGLSCRIQKDHHQASNSSRLHTCQRH
β-catenin expression [1]: abolished | β-catenin expression [3]: abolished | Wnt agonist-induced β-catenin expression [9]: inhibited | agonist (Wnt3a)-induced Wnt receptor activity (luciferase units) [14]: inhibited

— patent US20250161260A1, “USE OF DELTA-TOCOTRIENOL TO REDUCE THE PROGRESSION OF A NEOPLASM TO A CANCER” (H. LEE MOFFITT CANCER CENTER AND RESEARCH INSTITUTE, INC., priority 2022, published 2025)
